From patent US8617516B2, “Universal anchor peptide for nanoparticles” (Washington University, priority 2008, dated 2013) come the findings set out here.

A short description of data set [1]: Fluorescence correlation spectroscopy (FCS) diffusion time. In kind it is physicochemical. Particulars: mean±STD (n=3). From the text:
FCS is a quantitative technique, which detects fluorescence intensity fluctuations as fluorescent molecules diffuse through a small observation volume (<1 femtoliter). Statistical analysis of these fluorescence intensity fluctuations allows simultaneous determination of the number of fluorescent species in the system and their mobility.
In our case the observation volume is defined by the focal volume of a laser scanning microscope, while the statistical analysis of the intensity trace is calculated as follows: […]
The correlation curve obtained from the experiment is fitted with a mathematical function which describes the fluorescence intensity fluctuations in the observation volume according to Brownian diffusion and it also accounts for the photophysical characteristics of the dye:
where N is the average number of fluorescent particles in the observation volume, T is the fraction of fluorophores in the triplet state, τT is the lifetime of the triplet state of the fluorophore, τD is the characteristic diffusion time of the fluorophore, ω0 the waist radius of the laser focus. […]
The waist of the focus ω0 was determined by fitting the autocorrelation curve obtained in the same experimental conditions using free Alexa Fluor 488 [22]. In the case of labeled peptide binding to the nanoparticles the correlation curves were analyzed using the two component model as was described previously.

Data set [2] can be described thus: Surface plasmon resonance of NBD-Linker incorporation into PFC nanoparticles. In kind it is binding. Conditions: NBD-Linker on immobilized PFC nanoparticles, two-state model; read-out: dissociation constant of the entire process. As to the method:
The kinetics of NBD-Linker incorporation into lipid monolayers of PFC nanoparticles was studied by surface plasmon resonance (SPR). SPR detects change in the […] of a surface (Biacore-X 100 and carboxymethylated dextran chip L1 from Biacore Inc, Piscataway, N.J.). A uniform lipid monolayer on a L1 chip was created by injecting PFC nanoparticles (3 μl/min) for 30 minutes. Loosely deposited nanoparticles were removed by performing extra washing steps after immobilization to ensure a stable baseline. Complete coverage was confirmed by injecting the bovine serum albumin (1 mg/ml in PBS) at 15 μl/min for 2 minutes. Different peptides in selected concentrations were injected at a flow rate of 30 μl/min for 1 minute. At the end of each experiment the chip was regenerated by two consecutive injections of 3-[(3-cholamidopropyl)dimethylammonio]-1-propanesulfonate, CHAPS (50 μl, 100 μl/min). The data were analyzed with BiaEvaluation software (Biacore Inc, Piscataway, N.J.). A two-state model, [17].
To investigate the release rate of the NBD-Linker from the PFC nanoparticles, surface plasma resonance experiments were performed with a Biacore X 100, which allows quantitative analysis of interaction between peptide and lipid membrane. […] We consistently recorded two populations of peptides in the peptide-lipid interactions. […]

The nature of data set [3]: Dynamic light scattering size and zeta potential of peptide-loaded PFOB/PFC nanoparticles. It counts as physicochemical. On the procedure: The size distributions of the nanoparticles with or without the linker peptide were analyzed by dynamic light scattering (Brookhaven Instruments Corp., Holtsville, N.Y.). Zeta potential (ζ) values were determined with a Brookhaven Instruments PALS Zeta Potential Analyzer (Brookhaven Instruments Corp., Holtsville, N.Y.). Data were acquired in the phase-analysis light scattering (PALS) mode following solution equilibration at 25° C. […] This change further confirms the insertion of the linker peptide 1 into the PFOB nanoparticles. Furthermore, the structural integrity of linker peptide 1 inserted PFOB nanoparticles was confirmed by transmission electron microscopy.
The size distributions of the nanoparticles with or without cargo incorporated were analyzed by dynamic light scattering (Brookhaven Instruments Corp., Holtsville, N.Y.). The size distribution was plotted by particle number. Zeta potential (ζ) values were determined with a Brookhaven Instruments PALS Zeta Potential Analyzer (Brookhaven Instruments Corp., Holtsville, N.Y.). Data were acquired in the phase-analysis light scattering (PALS) mode following solution equilibration at 25° C.

For a further data set, the target named is T1, VCAM-1 (Mus musculus, UniProt P29533).
T1 construct: endogenous in cells; host or cells: 2F2B endothelial cells, TNF-α stimulated
T1 sequence (P29533 25-739): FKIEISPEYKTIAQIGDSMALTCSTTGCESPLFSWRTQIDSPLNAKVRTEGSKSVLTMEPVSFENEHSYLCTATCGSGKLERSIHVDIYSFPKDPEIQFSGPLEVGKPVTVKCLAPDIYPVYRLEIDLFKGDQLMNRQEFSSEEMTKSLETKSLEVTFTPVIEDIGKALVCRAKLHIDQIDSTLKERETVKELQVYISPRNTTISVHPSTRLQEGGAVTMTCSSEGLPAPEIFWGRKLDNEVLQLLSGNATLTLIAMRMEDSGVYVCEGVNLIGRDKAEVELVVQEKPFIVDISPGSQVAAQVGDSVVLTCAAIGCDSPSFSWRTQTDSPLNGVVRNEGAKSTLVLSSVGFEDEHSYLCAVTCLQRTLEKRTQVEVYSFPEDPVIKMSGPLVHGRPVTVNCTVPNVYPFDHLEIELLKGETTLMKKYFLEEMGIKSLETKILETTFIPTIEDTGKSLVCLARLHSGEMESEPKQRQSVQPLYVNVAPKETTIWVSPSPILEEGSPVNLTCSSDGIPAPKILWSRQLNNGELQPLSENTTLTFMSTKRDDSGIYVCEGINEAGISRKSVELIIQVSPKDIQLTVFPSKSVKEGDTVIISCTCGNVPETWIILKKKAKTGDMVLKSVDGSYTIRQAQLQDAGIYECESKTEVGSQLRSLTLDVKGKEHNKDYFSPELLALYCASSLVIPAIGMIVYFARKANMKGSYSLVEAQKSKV
In words: Specific binding of VCAM targeted nanoparticles by confocal microscopy. In kind it is cell-based. Particulars: Alexa Fluor 488 labeled PFOB nanoparticles, TNF-α stimulated 2F2B cells, 1 hour. On the procedure: The specific binding of VCAM targeted nanoparticles was evaluated by confocal microscopy in 2F2B cells, which express VCAM-1 on the cell surface after TNF-α stimulation. Alexa Fluor 488 labeled PFOB nanoparticles comprising the VCAM-targeting peptide (TCP1 or TCP2) or nanoparticles themselves were incubated with TNF-α stimulated 2F2B cells in Delta T Culture dish at 37° C. for 1 hour, followed by five PBS washes. Cells were then fixed by incubation in 1 ml of 4% paraformaldehyde at 37° C. for 5 minutes. After fixation, the cells were washed with PBS for 5 times and the cells were visualized using a confocal microscope (Zeiss Meta 510, Thornwood, N.Y.) with standard filter sets. Concomitant differential interference contrast (DIC) imaging was used to determine the location of nanoparticles in the cells.

The nature of data set [4]: Surface plasmon resonance (Biacore X 100) binding of peptides on immobilized perfluorocarbon nanoparticles. Particulars: VCAM-targeting peptides on perfluorocarbon nanoparticles; read-out: dissociation constant. On the procedure:
In order to evaluate whether linker peptide 1 (LP1) and linker peptide 2 (LP2) still retained high affinity on a lipid monolayer of the nanoparticles, surface plasmon resonance (SPR) studies were performed by using Biacore X 100 (Biacore Inc, Piscataway, N.J.). The binding kinetics and affinity of LP1 and LP2 on two type of nanoparticles were studied. One type was perfluorocarbon nanoparticles (e.g., perfluorooctylbromide, PFOB), the other type was oil-based (safflower core) nanoparticles. PBS (Ca^2+ and Mg^2+ free) was used as the running buffer. Nanoparticles were immobilized on Biacore sensor chip L1 by injecting nanoparticles at a flow rate of 1 μl/min for 30 minutes, followed by a running buffer wash at a flow rate of 100 μl/min for 50 seconds. Peptides in selected concentrations, prepared in running buffer, were then injected at a flow rate of 30 μl/min for 1 minute. At the end of each experiment, the sensor chip surface was regenerated by injection of 3-[(3-cholamidopropyl)dimethylammonio]-1-propanesulfonate (CHAPS) at a flow rate of 100 μl/min for 24 seconds.
The binding kinetics of the resulting VCAM-targeting peptides (i.e., TCP1 and TCP2) on perfluorocarbon nanoparticles were examined using Biacore X 100. PBS (Ca^2+ and Mg^2+ free) was used as the running buffer. Nanoparticles were immobilized on Biacore sensor chip L1 by injecting nanoparticles at a flow rate of 1 μl/min for 30 minutes, followed by a running buffer wash at a flow rate of 100 μl/min for 50 seconds. Targeting peptide prepared at selected concentrations in running buffer was sequentially injected at a flow rate of 30 μl/min for 1 minute. At the end of each experiment, the sensor chip surface was regenerated by injection of 3-[(3-cholamidopropyl)dimethylammonio]-1-propanesulfonate (CHAPS) at a flow rate of 100 μl/min for 24 seconds. FIG. 8 presents selected sensorgrams at several different concentrations of the two VCAM-targeting peptides. The dissociation constant of TCP1 and TCP2 were 0.13 μM and 0.04 μM, respectively.
(SPR reads the build-up and loss of mass on a sensor chip optically.)

In data set [1], `N=c1ccc2c(-c3ccc(C(=O)O)cc3C(=O)O)c3ccc(N)c(S(=O)(=O)O)c3oc-2c1S(=O)(=O)O` [Alexa Fluor 488] came in with a diffusion time of 35.8±1.4 μsec.
Regarding “NBD peptide (TALDWSWLQTE) fused onto the N-terminal of linker peptide (VLTTGLPALISWIKRKRQQ) with two glycines as a spacer [NBD-Linker]”, the Kd in data set [2] is 140 nM. Besides, in data set [3] (PFC nanoparticles without and with various amount of peptide loading), the mean diameters result is “equivalent”.
Regarding VLTTGLPALISWIKRggVHPKQHR [TCP1], in the data set with VCAM-1, the “binding to cellular VCAM-1 (fluorescent signal)” value is reported as “better binding”. In addition, the zeta potential in data set [3] (PFOB nanoparticles after incorporating the peptide (plain nanoparticles −17.62 mV)) is 13.47 mV. For the same compound, the average hydrodynamic diameter entry in data set [3] (PFOB nanoparticles with versus without inserted peptide) is “not affected”. Further, the Kd in data set [4] stood at 130 nM.
